Counter-ions that a name gives are not always drawn.
Molecular target: T1, proton pump (H+/K+-ATPase) (Sus scrofa, UniProt P19156)
T1 construct: used as an enzyme source of the in vitro enzyme reaction assay of proton pump; from tissue; host or cells: hog gastric fundic mucosa; membrane vesicles, lyophilized
Experiment: Inhibitory effects on proton pump (H+/K+-ATPase) activity
Type: biochemical
Conditions: hog gastric vesicles, K+ stimulated H+/K+-ATPase activity, Pi at 620 nm, 30 minutes at 37° C.
Experimental: 1-1. Preparation of gastric proton pump vesicles
The hog fundic regions containing parietal and peptic cells were scraped with slide-glass. The collected cells were suspended in 10 ml of 0.25M sucrose buffer and homogenized using a tight-fitting Teflon-glass homogenizer. The homogenate was centrifuged for 35 min at 8,000 rpm and the pellet was discarded. The supernatant was further centrifuged for 75 min at 25,000 rpm. The resulting pellets were re-suspended in the sucrose buffer (10 ml), and then the suspension was laid onto discontinuous density gradients consisting of 0.25M sucrose buffer and isolation medium containing 9% Ficoll (w/w). After being centrifuged for 3 hours and 15 minutes at 100,000×g, the material at the interface of sucrose buffer and Ficoll solution was collected and then centrifuged for 40 minutes at 100,000×g. The resulting pellets were re-suspended in 1 ml of 5 mM Hepes/Tris buffer (pH 6.1). This material was lyophilized and stored at −70° C. and used as an enzyme source of the in vitro enzyme reaction assay of proton pump.
1-2. Measurement of inhibitory effects on proton pump (H^+/K^+-ATPase) activity
The inhibitory effects of the compounds of the present invention against proton pump activity were evaluated in 96-well plate. In this assay, the K^+specific H^+/K^+-ATPase activity was calculated based on the difference between the activity of H^+/K^30 -ATPase activity with K^30 and without K^30 ion. In 96-well plate, 1% dimethylsulfoxide (DMSO) in buffer was added to negative and positive control groups and the diluted compounds of the present invention in buffer were added to test group. All assays were performed in 100μl reaction volume at room temperature, and the hog gastric vesicle was kept in ice before use. At the beginning of the reaction, 10μl of reaction buffer containing 1% DMSO was added to the negative and positive control groups and to reaction buffer each concentration of compounds in the test group. Then lyophilized vesicle in 5mM Pipes/Tris buffer (pH 6.1) was pre-incubated in the presence of various concentrations of test compounds. After a 5 minute incubation, negative and positive buffers were respectively added to the previous reaction mixture. As the substrate, ATP was added to the reaction buffer, and incubated for 30 minutes at 37° C. Enzymatic activity was stopped by the addition of colorimetric reagent (2X malachite green, 1X ammonium molybdate, X polyvinyl alcohol, 2X H2O) and the amount of mono phosphate (Pi) in the reaction was measured at 620nm using the micro plate reader (Genios Pro, TECAN). The difference between the Pi production with K^+and without K^+is taken as K^+stimulated H^+/K^+-ATPase activity. The IC50s of test compounds were calculated from each % inhibition value of compounds using the method of Litchfield-Wilcoxon (J. Pharmacol. Exp. Ther. (1949) 96, 99).

T1 sequence (P19156 whole entry): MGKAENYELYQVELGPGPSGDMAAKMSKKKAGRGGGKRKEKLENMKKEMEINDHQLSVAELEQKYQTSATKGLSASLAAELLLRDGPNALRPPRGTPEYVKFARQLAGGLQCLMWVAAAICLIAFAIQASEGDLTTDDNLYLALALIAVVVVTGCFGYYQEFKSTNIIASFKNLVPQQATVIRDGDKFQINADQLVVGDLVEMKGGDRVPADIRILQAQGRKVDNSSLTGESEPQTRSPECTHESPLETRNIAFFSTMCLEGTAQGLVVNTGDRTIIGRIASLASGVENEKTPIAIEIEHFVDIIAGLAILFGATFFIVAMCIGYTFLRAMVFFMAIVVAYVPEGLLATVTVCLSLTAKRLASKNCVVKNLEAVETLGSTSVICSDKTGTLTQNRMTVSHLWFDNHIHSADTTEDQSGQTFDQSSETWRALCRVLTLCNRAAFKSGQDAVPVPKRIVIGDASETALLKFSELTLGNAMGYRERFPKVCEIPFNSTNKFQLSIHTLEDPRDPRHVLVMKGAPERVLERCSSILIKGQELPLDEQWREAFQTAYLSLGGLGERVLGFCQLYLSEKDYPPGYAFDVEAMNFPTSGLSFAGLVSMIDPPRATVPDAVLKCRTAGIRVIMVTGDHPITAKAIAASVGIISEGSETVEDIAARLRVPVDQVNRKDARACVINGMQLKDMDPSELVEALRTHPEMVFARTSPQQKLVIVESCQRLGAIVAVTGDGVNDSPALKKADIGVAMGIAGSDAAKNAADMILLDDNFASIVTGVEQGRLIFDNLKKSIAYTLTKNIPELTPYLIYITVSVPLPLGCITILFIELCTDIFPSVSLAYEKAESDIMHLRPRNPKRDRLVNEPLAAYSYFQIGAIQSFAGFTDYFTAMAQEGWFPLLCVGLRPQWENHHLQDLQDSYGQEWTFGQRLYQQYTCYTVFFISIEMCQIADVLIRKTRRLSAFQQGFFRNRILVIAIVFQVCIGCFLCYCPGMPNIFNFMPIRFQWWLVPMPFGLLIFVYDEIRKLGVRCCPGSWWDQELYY
T1 sequence (P18434 whole entry partner): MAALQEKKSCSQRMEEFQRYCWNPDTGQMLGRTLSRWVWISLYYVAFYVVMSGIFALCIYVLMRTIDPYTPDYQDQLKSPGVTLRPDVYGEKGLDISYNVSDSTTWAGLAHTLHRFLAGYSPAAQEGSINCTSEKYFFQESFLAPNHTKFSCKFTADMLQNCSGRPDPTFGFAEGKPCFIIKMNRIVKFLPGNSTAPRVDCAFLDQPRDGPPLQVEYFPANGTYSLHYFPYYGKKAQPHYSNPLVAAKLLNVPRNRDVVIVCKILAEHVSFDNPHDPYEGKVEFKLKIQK

IC50 | SMILES
120 nM | Cc1[nH]c2c(OCc3ccc(F)cc3)cncc2c1C [Example 1, 7-(4-fluorobenzyloxy)-2,3-dimethyl-1H-pyrrolo[3,2-c]pyridine hydrochloride]
10 nM | C#CCn1c(C)c(C)c2cncc(OCc3ccc(F)cc3)c21.Cl [Example 2, 7-(4-fluorobenzyloxy)-2,3-dimethyl-1-(prop-2-ynyl)-1H-pyrrolo[3,2-c]pyridine hydrochloride]
40 nM | CCn1c(C)c(C)c2cncc(OCc3ccc(F)cc3)c21 [Example 3, 1-ethyl-7-(4-fluorobenzyloxy)-2,3-dimethyl-1H-pyrrolo[3,2-c]pyridine hydrochloride]
10 nM | Cc1c(C)n(CC2CC2)c2c(OCc3ccc(F)cc3)cncc12 [Example 4, 1-cyclopropylmethyl-7-(4-fluorobenzyloxy)-2,3-dimethyl-1H -pyrrolo[3,2-c]pyridine hydrochloride]
280 nM | C=CCn1c(C)c(C)c2cncc(OCc3ccc(F)cc3)c21 [Example 5, 1-allyl-7-(4-fluorobenzyloxy)-2,3-dimethyl-1H-pyrrolo[3,2-c]pyridine hydrochloride]
30 nM | Cc1c(C)n(Cc2cccc(F)c2)c2c(OCc3ccc(F)cc3)cncc12 [Example 6, 1-(3-fluorobenzyl)-7-(4-fluorobenzyloxy)-2,3-dimethyl-1H -pyrrolo[3,2-c]pyridine hydrochloride]
60 nM | COc1cccc(Cn2c(C)c(C)c3cncc(OCc4ccc(F)cc4)c32)c1 [Example 7, 7-(4-fluorobenzyloxy)-1-(3-methoxybenzyl)-2,3-dimethyl-1H -pyrrolo[3,2-c]pyridine hydrochloride]
60 nM | Cc1ccc(Cn2c(C)c(C)c3cncc(OCc4ccc(F)cc4)c32)cc1 [Example 8, 7-(4-fluorobenzyloxy)-2,3-dimethyl-1-(4-methylbenzyl)-1H -pyrrolo[3,2-c]pyridine hydrochloride]
50 nM | Cc1c(C)n(Cc2ccc(F)cc2)c2c(OCc3ccc(F)cc3)cncc12 [Example 9, 1-(4-fluorobenzyl)-7-(4-fluorobenzyloxy)-2,3-dimethyl-1H -pyrrolo[3,2-c]pyridine hydrochloride]
340 nM | Cc1c(C)n(Cc2ccc(C(F)(F)F)cc2)c2c(OCc3ccc(F)cc3)cncc12 [Example 10, 7-(4-fluorobenzyloxy)-2,3-dimethyl-1-(4-trifluoromethylbenzyl)-1H -pyrrolo[3,2-c]pyridine hydrochloride]
10 nM | Cc1c(C)n(CC(C)C)c2c(OCc3ccc(F)cc3)cncc12 [Example 11, 7-(4-fluorobenzyloxy)-1-isobutyl-2,3-dimethyl-1H-pyrrolo[3,2-c]pyridine hydrochloride]
1020 nM | Cc1ccc(C)c(Cn2c(C)c(C)c3cncc(OCc4ccc(F)cc4)c32)c1 [Example 13, 1-(2,5-dimethylbenzyl)-7-(4-fluorobenzyloxy)-2,3-dimethyl-1H -pyrrolo[3,2-c]pyridine hydrochloride]
460 nM | Cc1c(C)n(Cc2ccccc2Cl)c2c(OCc3ccc(F)cc3)cncc12 [Example 14, 1-(2-chlorobenzyl)-7-(4-fluorobenzyloxy)-2,3-dimethyl-1H -pyrrolo[3,2-c]pyridine hydrochloride]
190 nM | Cc1c(C)n(Cc2ccccc2F)c2c(OCc3ccc(F)cc3)cncc12 [Example 15, 1-(2-fluorobenzyl)-7-(4-fluorobenzyloxy)-2,3-dimethyl-1H -pyrrolo[3,2-c]pyridine hydrochloride]
460 nM | Cc1[nH]c2c(N3CCc4ccccc4C3)cncc2c1C [Example 27, 2-(2,3-dimethyl-1H-pyrrolo[3,2-c]pyridin-7-yl)-1,2,3,4-tetrahydroisoquinoline hydrochloride]
190 nM | Cc1c(C)n(Cc2ccc(F)cc2)c2c(N3CCc4ccccc4C3)cncc12 [Example 28, 2-[1-(4-fluorobenzyl)-2,3-dimethyl-1H-pyrrolo[3,2-c]pyridin-7-yl]-1,2,3,4-tetrahydroisoquinoline hydrochloride]
320 nM | COC(=O)c1ccc(Cn2c(C)c(C)c3cncc(N4CCc5ccccc5C4)c32)cc1 [Example 29, 1-(4-methoxycarbonylbenzyl)-7-(1,2,3,4-tetrahydroisoquinolin-2-yl)-2,3-dimethyl-1H-pyrrolo[3,2-c]pyridine hydrochloride]
170 nM | Cc1c(C)n(Cc2ccc3c(c2)OCCO3)c2c(N3CCc4ccccc4C3)cncc12 [Example 30, 2-[1-(2,3-dihydrobenzo[1,4]dioxin-6-ylmethyl)-2,3-dimethyl-1H-pyrrolo[3,2-c]pyridin-7-yl]-1,2,3,4-tetrahydroisoquinoline hydrochloride]
170 nM | COCCn1c(C)c(C)c2cncc(N3CCc4ccccc4C3)c21 [Example 31, 1-(2-methoxyethyl)-7-(1,2,3,4-tetrahydroisoquinolin-2-yl)-2,3-dimethyl-1H -pyrrolo[3,2-c]pyridine hydrochloride]
290 nM | Cc1c(C)n(Cc2ccc3ccccc3c2)c2c(N3CCc4ccccc4C3)cncc12 [Example 32, 1-(2-naphthylmethyl)-7-(1,2,3,4-tetrahydroisoquinolin-2-yl)-2,3-dimethyl-1H -pyrrolo[3,2-c]pyridine hydrochloride]
410 nM | C=COCCn1c(C)c(C)c2cncc(N3CCc4ccccc4C3)c21 [Example 33, 1-(2-vinyloxyethyl)-7-(1,2,3,4-tetrahydroisoquinolin-2-yl)-2,3-dimethyl-1H -pyrrolo[3,2-c]pyridine hydrochloride]
190 nM | Cc1c(C)n(CC2OCCO2)c2c(N3CCc4ccccc4C3)cncc12 [Example 34, 1-(1,3-dioxolan-2-ylmethyl)-7-(1,2,3,4-tetrahydroisoquinolin-2-yl)-2,3-dimethyl-1H -pyrrolo[3,2-c]pyridine hydrochloride]
60 nM | Cc1c(C)n(Cc2ccccc2)c2c(N3CCc4ccccc4C3)cncc12 [Example 35, 1-benzyl-7-(1,2,3,4-tetrahydroisoquinolin-2-yl)-2,3-dimethyl-1H -pyrrolo[3,2-c]pyridine hydrochloride]
310 nM | Cc1c(C)n(CC(C)C)c2c(N3CCc4ccccc4C3)cncc12 [Example 36, 1-isobutyl-7-(1,2,3,4-tetrahydroisoquinolin-2-yl)-2,3-dimethyl-1H -pyrrolo[3,2-c]pyridine hydrochloride]
750 nM | Cc1c(C)n(CC2CCC2)c2c(N3CCc4ccccc4C3)cncc12 [Example 37, 1-cyclobutylmethyl-7-(1,2,3,4-tetrahydroisoquinolin-2-yl)-2,3-dimethyl-1H -pyrrolo[3,2-c]pyridine hydrochloride]
240 nM | Cc1c(C)n(CC2CC2)c2c(N3CCc4ccccc4C3)cncc12 [Example 39, 2-(1-cyclopropylmethyl-2,3-dimethyl-1H-pyrrolo[3,2-c]pyridin-7-yl)-1,2,3,4-tetrahydroisoquinoline hydrochloride]
30 nM | CCn1c(C)c(C)c2cncc(N3CCc4ccccc4C3)c21 [Example 40, 2-(1-ethyl-2,3-dimethyl-1H-pyrrolo[3,2-c]pyridin-7-yl)-1,2,3,4-tetrahydroisoquinoline hydrochloride]
1810 nM | Cc1c(C)n(Cc2cccc(C#N)c2)c2c(N3CCc4ccccc4C3)cncc12 [Example 41, 3-[7-(3,4-dihydro-1H-isoquinolin-2-yl)-2,3-dimethylpyrrolo[3,2-c]pyridin-1-ylmethyl]-benzonitrile hydrochloride]

System: basal gastric acid secretion
Experiment: Inhibitory effects on basal gastric acid secretion in pylorus-ligated rats (Shay's rat model)
Type: in vivo, Sprague Dawley (SD) rats
Conditions: oral, one hour before pylorus ligation, total acid output 5 hours after ligation, male SD rats
Experimental: Test Example 2. Inhibitory effects on basal gastric acid secretion in pylorus-ligated rats. Inhibitory effects of the compounds of the present invention on basal gastric acid secretion were performed according to Shay's rat model (Shay, H., et al., 1945, gastroenterology, 5, 43-61). Male Sprague Dawley (SD) rats (200±10 g body weight) were divided into 3 groups (n=5) and fasted for 24 hours with free access to water. Control group was orally administered with 0.5% methylcellulose alone and the other groups were orally administered with test compounds suspended in 0.5% methyl-cellulose solution at doses of 1, 3 and 10 mg/kg/5 ml one hour before pylorus ligation. Under ether anesthesia, the abdomens of the rats were incised and then the pylorus was ligated. 5 hours after ligation, the animals were sacrificed, and the gastric contents were collected. The collected contents were centrifuged at 1,000×g for 10 minutes to obtain the gastric juice. Total acid output was measured by 0.01N NaOH volume (ueq/ml) for automatic titration of the gastric juice to pH 7.0 and the ED50s of test compounds were calculated using the Litchfield-Wilcoxon method. % inhibitory activity was calculated from the following equation and the results are shown in Table 2. %inhibitory activity of test compound=(total acid output of control group−total acid output of the group treated with test compounds)/total acid output of control group X 100

SMILES | ED50
C#CCn1c(C)c(C)c2cncc(OCc3ccc(F)cc3)c21.Cl [Example 2, 7-(4-fluorobenzyloxy)-2,3-dimethyl-1-(prop-2-ynyl)-1H-pyrrolo[3,2-c]pyridine hydrochloride] | 1.1 mg/kg

Source: patent US7541366B2, “Pyrrolo[3,2-c]pyridine derivatives and processes for the preparation thereof” (YUHAN Corporation, priority 2004, dated 2009)
